From patent US8518891B2 (priority 2006, dated 2013) come the findings set out here.

For orientation: pIC50 means the IC50 on a negative log10 scale, so that one unit is a factor of ten. Higher therefore signals a small IC50.

The nature of data set [1]: Stability of peptide-linker-drug conjugates in the absence of PSA, disappearance monitored by HPLC. The format is physicochemical. To be noted: for half-life: 0.1 M phosphate buffer, pH 7.4, 37° C., read-out: T1/2 -PSA (stability) (converted); for Stability relative to 5a in the absence of PSA: in words. The protocol:
(§1) First, the stability and PSA cleavage of glutaryl-Hyp-Ala-Ser-Chg-Gln-aminobenzyl phosphoramide mustard without substitutions on the benzyl ring (5a) was tested by monitoring the disappearance of the peptide-linker-drug conjugate using HPLC. […] Thus, peptide-linker-drug conjugate 5a is a substrate of PSA. The hydrolysis in the presence of PSA was 40 times faster than that in the absence of PSA. But, the instability in the absence of PSA was a concern. This instability can be addressed by introducing an electron-withdrawing fluorine atom on the aromatic ring as shown in Table 1. […] In the presence of PSA, they were more quickly hydrolyzed with t½of 43 and 57 min, respectively.

Another data set concerns the target PSA (Homo sapiens, UniProt P07288). Nature of the data set: PSA cleavage of peptide-linker-drug conjugates, disappearance monitored by HPLC. It is filed as biochemical. To be noted: for half-life: PSA, in the presence of PSA; for Stability Ratio between T1/2 in the absence and presence of PSA: T1/2 (-PSA) / T1/2 (+PSA). As to the method: as §1
Data set [2] concerns LNCaP human prostate cancer cell line. Kind of data set: In vitro antiproliferative activity assay in PSA-producing LNCaP cells. The format is cell-based. The conditions noted are these: 72 h drug exposure. An excerpt: (§2) Furthermore, analogs 5b and 5c were synthesized with an electron-withdrawing fluorine atom at C2 (5b) and C3 (5c), respectively.
Data set [3] relates to DU145 human prostate cancer cell line. Nature of the data set: In vitro antiproliferative activity assay in non-PSA-producing DU145 cells. To be noted: 72 h drug exposure. It is filed as cell-based.
Excerpt: as §2

Setting [4] is: read-out: T1/2 +PSA (PSA-catalyzed cleavage) (converted).
[5] abbreviates: read-out: t½ in the presence of PSA.

Structures are written as SMILES. pIC50: −log10 of the molar value. Values joined by “and” are separate entries in the source; they are usually repeats but may differ in a detail not shown here. Equal entries are not always repeated. Where two headings read alike, the source gives them in different places. Numbered stars: 1 amine (or outer) side, 2 acyl side, 3 side chain; on linkers, the order of the positions; unused ones are H or OH. Square brackets hold non-standard residues; d marks the D form. Peptide text beside a SMILES is read from it. * marks the point of attachment. X5 = NP(=O)(OCc1c(F)c(F)c(N*)c(F)c1F)N(CCCl)CCCl; X4 = NP(=O)(OCc1c(F)cc(N*)cc1F)N(CCCl)CCCl; X2 = NP(=O)(OCc1ccc(N*)c(F)c1)N(CCCl)CCCl; X1 = NP(=O)(OCc1ccc(N*)cc1F)N(CCCl)CCCl; X3 = NP(=O)(OCc1ccc(N*)cc1)N(CCCl)CCCl; Glutaryl = O=C(CCCC(=O)[*:2])[*:1]; Hyp = O=C(O)[C@@H]1C[C@@H](O)CN1; Chg = N[C@H](C(=O)O)C1CCCCC1

Sequence of PSA (P07288 25-261): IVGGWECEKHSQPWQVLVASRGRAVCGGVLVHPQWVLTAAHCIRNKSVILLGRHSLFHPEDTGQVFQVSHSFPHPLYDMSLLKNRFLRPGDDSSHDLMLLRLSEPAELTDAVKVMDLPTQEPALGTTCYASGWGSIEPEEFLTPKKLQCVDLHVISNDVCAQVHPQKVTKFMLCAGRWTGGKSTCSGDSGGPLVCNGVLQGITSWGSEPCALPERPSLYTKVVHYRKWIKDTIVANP

With `C[C@H](NC(=O)[C@@H]1C[C@@H](O)CN1C(=O)CCCC(=O)O)C(=O)N[C@@H](CO)C(=O)N[C@H](C(=O)N[C@@H](CCC(N)=O)C(=O)Nc1ccc(COP(N)(=O)N(CCCl)CCCl)cc1)C1CCCCC1` (stereo partly drawn) [5a, glutaryl-Hyp-Ala-Ser-Chg-Gln-NH-benzyl phosphoramide mustard] (Glutaryl-[Hyp]AS[Chg]Q-X3), the half-life is 48 h in data set [1] and 1.2 h on PSA (setting [4]). For the same compound, on PSA, the “Stability Ratio between T1/2 in the absence and presence of PSA” value was 40. In addition, the pIC50 in data set [2] is 4.96; in data set [3] it was ~4.46 and 4.46.

As for `C[C@H](NC(=O)[C@@H]1C[C@@H](O)CN1C(=O)CCCC(=O)O)C(=O)N[C@@H](CO)C(=O)N[C@H](C(=O)N[C@@H](CCC(N)=O)C(=O)Nc1ccc(COP(N)(=O)N(CCCl)CCCl)c(F)c1)C1CCCCC1` (stereo partly drawn) [5b, glutaryl-Hyp-Ala-Ser-Chg-Gln-NH-2-fluorobenzyl phosphoramide mustard] (Glutaryl-[Hyp]AS[Chg]Q-X1), the half-life in data set [1] is 105 h; at PSA (setting [4]), 0.93 h; at PSA (setting [5]), 0.717 h. Moreover, the “Stability relative to 5a in the absence of PSA” value in data set [1] was “much more stable than 5a”. At PSA, the “Stability Ratio between T1/2 in the absence and presence of PSA” value was 113. Further, the pIC50 in data set [2] was 5.28; in data set [3] it was under 4.00.

For the compound `C[C@H](NC(=O)[C@@H]1C[C@@H](O)CN1C(=O)CCCC(=O)O)C(=O)N[C@@H](CO)C(=O)N[C@H](C(=O)N[C@@H](CCC(N)=O)C(=O)Nc1ccc(COP(N)(=O)N(CCCl)CCCl)cc1F)C1CCCCC1` (stereo partly drawn) [5c, glutaryl-Hyp-Ala-Ser-Chg-Gln-NH-3-fluorobenzyl phosphoramide mustard] (Glutaryl-[Hyp]AS[Chg]Q-X2), the half-life in data set [1] was 462 h; at PSA (setting [4]) it was 0.65 h; on PSA (setting [5]), 0.95 h. Moreover, in data set [1], the “Stability relative to 5a in the absence of PSA” value was “much more stable than 5a”. For the same compound, the “Stability Ratio between T1/2 in the absence and presence of PSA” value on PSA is 711. The negative logarithm of the IC50 (pIC50) in data set [2] is 4.54; in data set [3], under 4.00.

As for `C[C@H](NC(=O)[C@@H]1C[C@@H](O)CN1C(=O)CCCC(=O)O)C(=O)N[C@@H](CO)C(=O)N[C@H](C(=O)N[C@@H](CCC(N)=O)C(=O)Nc1cc(F)c(COP(N)(=O)N(CCCl)CCCl)c(F)c1)C1CCCCC1` (stereo partly drawn) [5d, glutaryl-Hyp-Ala-Ser-Chg-Gln-NH-2,6-difluorobenzyl phosphoramide mustard] (Glutaryl-[Hyp]AS[Chg]Q-X4), the half-life in data set [1] was 131 h; at PSA (setting [4]), 1.75 h. Further, the “Stability Ratio between T1/2 in the absence and presence of PSA” value at PSA is reported as 75. Moreover, the pIC50 in data set [2] is 4.70; in data set [3], under 4.00.

As to `C[C@H](NC(=O)[C@@H]1C[C@@H](O)CN1C(=O)CCCC(=O)O)C(=O)N[C@@H](CO)C(=O)N[C@H](C(=O)N[C@@H](CCC(N)=O)C(=O)Nc1c(F)c(F)c(COP(N)(=O)N(CCCl)CCCl)c(F)c1F)C1CCCCC1` (stereo partly drawn) [5e, glutaryl-Hyp-Ala-Ser-Chg-Gln-NH-2,3,5,6-tetrafluorobenzyl phosphoramide mustard] (Glutaryl-[Hyp]AS[Chg]Q-X5), the half-life was 178 h in data set [1] and 1.1 h on PSA (setting [4]). For the same compound, the “Stability Ratio between T1/2 in the absence and presence of PSA” value on PSA stood at 162. Besides, the negative logarithm of the IC50 (pIC50) in data set [2] and in data set [3] was under 4.00 throughout.
